pIC50: −log10 of the molar value.
Key:
L1236-R100 = test: Viable cell count and IC50, bendamustine-resistant cell line; type: cell-based, human; conditions: Homo sapiens; R100 cell line
Procedure: (§1) • (a) Five Hodgkin lymphoma cell lines (KMH2, HDML2, L540, L1236 and L426) were cultured separately in the presence of bendamustine, vorinostat and EDO-S101 dissolved in DMSO at 37° C. L1236-derived Hodgkin lymphoma cell lines were selected as they have an acquired stable resistance to bendamustine (R100) or an ability to display continuous growth upon extended exposure to sub-lethal concentrations of bendamustine (R25, R50 and R75). A detailed description of the L1236-R Hodgkin lymphoma cell lines is disclosed in De Filippi et al, ASH 2015, Abstract. #2479. In these tests, the L1236-100R bendamustine resistant strain was used. […] Control cells were cultured in the same final concentration of DMSO. The number of viable cells was assessed at 24, 48 and 72 hours through a Countess™ automated cell counter (Invitrogen), each experiment being repeated three times and the results given being the mean of the three results±SD.

[1] = tested on: relapsed-refractory Hodgkin lymphoma; conditions: cited from earlier work
[2] = tested on: Hodgkin lymphoma cell lines (KMH2, HDML2, L540, L1236 and L426); test: IC50 comparison of bendamustine, vorinostat and EDO-S101, five cell lines; type: cell-based, human; conditions: Homo sapiens; range over all cell lines tested, including L1236-R
Procedure: as §1

R100 = test: Combination with Brentuximab Vedotin, % survival, R100; type: cell-based, human; conditions: Brentuximab Vedotin 0.39 μg/ml (typically 10-fold lower than IC50) with EDO-S101 1.56 μM
Procedure: 1.56 μM of EDO-S101 was administered to two Hodgkin lymphoma cell lines, the bendamustine naïve cell line L1236 and the bendamustine resistant cell line R100. In a second experiment, Brentuximab Vedotin was administered at a concentration of 3.12 μg/ml to the L1236 cell line and at a concentration of 0.39 μg/ml to the R100 cell line. Finally, in a third experiment EDO-S101 and Brentuximab Vedotin were administered in combination to each of the two cell lines at the same concentrations that they were administered in the monotherapy experiments.

| Compound | pIC50 (L1236-R100) | patients resistant to bendamustine [1] | pIC50 [2] | cytotoxic effect in combination with EDO-S101 (R100) |
| --- | --- | --- | --- | --- |
| Cn1c(CCCC(=O)O)nc2cc(N(CCCl)CCCl)ccc21 [bendamustine, reference compound] | ~3.85 | about 40% | 4.77 to 4.96 | – |
| Brentuximab Vedotin | – | – | – | considerable cytotoxic effect |

Reference: patent US12440475B2, “Hodgkin lymphoma therapy” (priority 2016, dated 2025)
